Legend:
Substance-P receptor = Substance-P receptor (Homo sapiens, UniProt P25103); test: In vitro inhibition of binding of [125I]-substance P to tachykinin receptor 1
Gerbillinae [1] = test: Inhibition of GR-73632-induced Gerbil foot tapping after immediate pretreatment iv; type: functional; settings: read-out: ID50 (the source's name)
Gerbillinae [2] = test: Inhibition of GR-73632-induced Gerbil foot tapping after 24 hr pretreatment iv; type: functional; settings: read-out: ID50 (the source's name)

Chain of Substance-P receptor (P25103 whole entry): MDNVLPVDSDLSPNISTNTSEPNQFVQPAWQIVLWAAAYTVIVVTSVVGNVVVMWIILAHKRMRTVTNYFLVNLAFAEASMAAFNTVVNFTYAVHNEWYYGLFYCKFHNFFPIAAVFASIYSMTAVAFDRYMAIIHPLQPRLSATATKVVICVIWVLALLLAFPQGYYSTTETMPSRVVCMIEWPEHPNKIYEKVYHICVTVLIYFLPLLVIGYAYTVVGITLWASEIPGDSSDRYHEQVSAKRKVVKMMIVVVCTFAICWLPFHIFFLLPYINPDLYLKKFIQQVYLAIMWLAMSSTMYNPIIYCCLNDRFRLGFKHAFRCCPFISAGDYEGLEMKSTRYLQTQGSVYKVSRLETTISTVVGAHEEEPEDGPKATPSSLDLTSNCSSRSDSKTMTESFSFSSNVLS

Row | Compound | IC50 (Substance-P receptor) [nM] | ED50 (Gerbillinae [1]) [mg/kg] | ED50 (Gerbillinae [2]) [mg/kg]
1 | CNCc1nn[nH]c1CN1CCOC(O[C@H](C)c2cc(C(F)(F)F)cc(C(F)(F)F)c2)[C@@H]1c1ccc(F)cc1 (stereo not given in full) | 0.29 | 3.1 | –
2 | C[C@@H](OC1OCCN(Cc2n[nH]nc2CN2CCC2)[C@H]1c1ccc(F)cc1)c1cc(C(F)(F)F)cc(C(F)(F)F)c1 (stereo not given in full) | 0.19 | 0.4 | –
3 | C[C@@H](O[C@H]1OCCN(Cc2nn[nH]c2CN2CCCC2)[C@H]1c1ccc(F)cc1)c1cc(C(F)(F)F)cc(C(F)(F)F)c1 | 0.21 | 0.4 | –
4 | C[C@@H](O[C@H]1OCCN(Cc2n[nH]c(=O)[nH]2)[C@H]1c1ccc(F)cc1)c1cc(C(F)(F)F)cc(C(F)(F)F)c1 [APREPITANT] | – | 0.4 | 0.3

Continued by falling IC50 (Substance-P receptor), values first:

Row | IC50 (Substance-P receptor) [nM] | Compound | ED50 (Gerbillinae [1]) [mg/kg] | ED50 (Gerbillinae [2]) [mg/kg]
5 | 0.35 | CC(C)N(Cc1[nH]nnc1CN1CCO[C@H](O[C@H](C)c2cc(C(F)(F)F)cc(C(F)(F)F)c2)[C@@H]1c1ccc(F)cc1)C(C)C | 1 | –
6 | 0.25 | C[C@@H](O[C@H]1OCCN(Cc2nn[nH]c2CN)[C@H]1c1ccc(F)cc1)c1cc(C(F)(F)F)cc(C(F)(F)F)c1 | 5.3 | –
7 | 0.19 | C[C@@H](OC1OCCN(Cc2n[nH]nc2CN(C)C)[C@H]1c1ccc(F)cc1)c1cc(C(F)(F)F)cc(C(F)(F)F)c1.Cl (stereo not given in full) | 0.2 | 0.3
